Experimental data published in patent US20180072997A1, “INHIBITORS OF HUMAN IMMUNODEFICIENCY VIRUS REPLICATION” (ViiV HEATHCARE UK (NO.5) LIMITED, priority 2015, published 2018).

What was measured:
[1] = test system: recombinant NL4-3 virus (Renilla luciferase in nef) in MT-2 cells; experiment: whole plant or invertebrate; assay type: cell-based, HIV; details: luciferase activity
Procedure: HIV cell culture assay—MT-2 cells, 293T cells and the proviral DNA clone of NL4-3 virus were obtained from the NIH AIDS Research and Reference Reagent Program. MT-2 cells were propagated in RPMI 1640 media supplemented with 10% heat inactivated fetal bovine serum (FBS), 100 μg/ml penicillin G and up to 100 units/mL streptomycin. The 293T cells were propagated in DMEM media supplemented with 10% heat inactivated FBS, 100 μg/mL penicillin G and 100 μg/mL streptomycin. A recombinant NL4-3 proviral clone, in which a section of the nef gene was replaced with the Renilla luciferase gene, was used to make the reference virus used in these studies. The recombinant virus was prepared through transfection of the recombinant NL4-3 proviral clone into 293T cells using Transit-293 Transfection Reagent from Mirus Bio LLC (Madison, Wis.). Supernatent was harvested after 2-3 days and the amount of virus present was titered in MT-2 cells using luciferase enzyme activity as a marker by measuring luciferase enzyme activity. Luciferase was quantitated using the EnduRen Live Cell Substrate from Promega (Madison, Wis.). Antiviral activities of compounds toward the recombinant virus were quantified by measuring luciferase activity in MT-2 cells infected for 4-5 days with the recombinant virus in the presence of serial dilutions of the compound.
(Johnson V A, Byington R T. Infectivity Assay. In Techniques in HIV Research. ed. Aldovini A, Walker BD. 71-76. New York: Stockton Press.1990).

[2] = Compound cytotoxicity, XTT-based colorimetric assay; assay type: cell-based; details: human, uninfected MT2 cells, day 4, XTT
Procedure: Compound cytotoxicity and the corresponding CC50 values were determined using the same protocol as described in the antiviral assay except that uninfected cells were used. Cytotoxicity was assessed on day 4 in uninfected MT2 cells by using a XTT (2,3-bis[2-Methoxy-4-nitro-5-sulfophenyl]-2H-tetrazolium-5-carboxyanilide inner salt)-based colorimetric assay (Sigma-Aldrich, St Louis, Mo.).

[3] = Renilla, NL43, MT-2 cells infected for 4-5 days with recombinant NL4-3 Renilla luciferase virus
[4] = MT-2 cells infected for 4-5 days with recombinant NL4-3 Renilla luciferase virus

| SMILES | EC50 [1, 3] | CC50 at 4 days [2] | EC50 [1, 4] |
| --- | --- | --- | --- |
| COc1ccc(N(C)C(=O)[C@H](Cc2ccccc2)NC(=O)C2CCCCC2C(=O)N[C@@H](Cc2ccccc2)C(=O)N(C)c2ccc(OC)cc2)cc1 (mixture of isomers) [Example 53] | 0.34 µM | ≥ 33.3 µM | – |
| COc1ccc(N(C)C(=O)[C@H](Cc2ccccc2)NC(=O)C=C(C)CC(=O)N[C@@H](Cc2ccccc2)C(=O)N(C)c2ccc(OC)cc2)cc1 (single isomer, unassigned) [Example 113] | – | 25.3 µM | 0.36 µM |
| COc1ccc(N(C)C(=O)[C@H](Cc2ccccc2)NC(=O)C(C)n2c(=O)n(C(C)C(=O)N[C@@H](Cc3ccccc3)C(=O)N(C)c3ccc(OC)cc3)c3ccccc32)cc1 (single isomer, unassigned) [Example 131] | 0.49 µM | 6.3 µM | – |
| COc1ccc(N(C)C(=O)[C@H](Cc2cc(F)cc(F)c2)NC(=O)C(C)n2c(=O)n(C(C)C(=O)N[C@@H](Cc3cc(F)cc(F)c3)C(=O)N(C)c3ccc(OC)cc3)c3ccccc32)cc1 (single isomer, unassigned) [Example 132] | – | 7.3 µM | 1.94 µM |
| C=CCCN(C(=O)[C@H](Cc1cc(F)cc(F)c1)NC(=O)NS(=O)(=O)N[C@@H](Cc1cc(F)cc(F)c1)C(=O)N(CCC=C)c1ccc2scnc2c1)c1ccc2scnc2c1 (single isomer, unassigned) [Example 141] | – | 16.2 µM | 0.09 µM |
| COc1ccc(N(C)C(=O)[C@H](Cc2ccccc2)NC(=O)N[C@@H](Cc2ccccc2)C(=O)N(C)c2ccc(OC)cc2)cc1 [Example 1] | 2.86 µM | 23.1 µM | – |
| COc1ccc(N(C)C(=O)[C@H](Cc2ccccc2)NC(=O)NS(=O)(=O)N[C@@H](Cc2ccccc2)C(=O)N(C)c2ccc(OC)cc2)cc1 [Example 2] | 0.03 µM | 77.9 µM | – |
| COc1ccc(N(C)C(=O)[C@H](Cc2ccccc2)NC(=O)CC(=O)N[C@@H](Cc2ccccc2)C(=O)N(C)c2ccc(OC)cc2)cc1 [Example 3] | 1.94 µM | 70.9 µM | – |
| COc1ccc(N(C)C(=O)[C@H](Cc2ccccc2)NC(=O)C(C)(C)C(=O)N[C@@H](Cc2ccccc2)C(=O)N(C)c2ccc(OC)cc2)cc1 [Example 4] | 1.87 µM | ≥ 100 µM | – |
| CCOc1ccc(N(CC)C(=O)[C@H](Cc2ccccc2)NC(=O)NS(=O)(=O)N[C@@H](Cc2ccccc2)C(=O)N(CC)c2ccc(OCC)cc2)cc1 [Example 5] | 0.15 µM | ≥ 33.3 µM | – |
| COc1ccc(N(C)C(=O)[C@H](Cc2ccccc2)NC(=O)NS(=O)(=O)N[C@@H](Cc2ccccc2)c2nnc(SC)o2)cc1 [Example 6] | 6.78 µM | ≥ 100 µM | – |
| COc1ccc(N(C)C(=O)[C@H](Cc2ccccc2)NC(=O)NS(=O)(=O)N[C@@H](Cc2ccccc2)c2nc(C)no2)cc1 [Example 7] | 3.76 µM | ≥ 100 µM | – |
| COc1ccc(N(C)C(=O)[C@H](Cc2ccccc2)NC(=O)NS(=O)(=O)N[C@@H](Cc2ccccc2)C(=O)N2CCCC2)cc1 [Example 8] | 2.04 µM | ≥ 33.3 µM | – |
| COc1ccc(N(C)C(=O)[C@H](Cc2ccccc2)NC(=O)NS(=O)(=O)N[C@@H](Cc2ccc(F)cc2)C(=O)N(C)C)cc1 [Example 9] | 2.67 µM | ≥ 100 µM | – |
| COc1ccc(N(C)C(=O)[C@H](Cc2ccccc2)NC(=O)NC(=O)N[C@@H](Cc2ccccc2)C(=O)N(C)c2ccc(OC)cc2)cc1 [Example 10] | 4.71 µM | 10.5 µM | – |
| COc1ccc(N(C)C(=O)[C@H](Cc2ccccc2)NC(=O)NS(=O)(=O)N[C@H](Cc2ccccc2)C(=O)N(C)c2ccc(OC)cc2)cc1 [Example 11] | 0.47 µM | ≥ 33.3 µM | – |
| COc1ccc(NC(=O)[C@H](Cc2ccccc2)NS(=O)(=O)NC(=O)N[C@@H](Cc2ccccc2)C(=O)N(C)c2ccc(OC)cc2)cc1 [Example 12] | 12.4 µM | 29 µM | – |

| SMILES | EC50 [1, 3] | CC50 at 4 days [2] | EC50 [1, 4] |
| --- | --- | --- | --- |
| CN(C(=O)[C@H](Cc1ccccc1)NC(=O)NS(=O)(=O)N[C@@H](Cc1ccccc1)C(=O)N(C)c1ccc2scnc2c1)c1ccc2scnc2c1 [Example 13] | 0.08 µM | ≥ 100 µM | – |
| COc1ccc(N(C)C(=O)[C@H](Cc2ccccc2)NC(=O)NS(=O)(=O)N[C@@H](Cc2ccccc2)C(=O)N(C)c2ccc3c(c2)OCO3)cc1 [Example 14] | 0.08 µM | ≥ 50 µM | – |
| COc1ccc(N(C)C(=O)[C@H](Cc2ccccc2)NC(=O)NS(=O)(=O)N[C@@H](Cc2ccccc2)C(=O)N(C)c2cc(C)c(OC)cc2C)cc1 [Example 15] | 4.22 µM | 35.3 µM | – |
| COc1ccc(N(C)C(=O)[C@H](Cc2ccccc2)NC(=O)NS(=O)(=O)N[C@@H](Cc2ccccc2)C(=O)N(C)c2ccc(OC)cc2C)cc1 [Example 16] | 1.72 µM | ≥ 33.3 µM | – |
| COc1ccc(N(C)C(=O)[C@H](Cc2ccccc2)NC(=O)NS(=O)(=O)N[C@@H](Cc2ccccc2)C(=O)N(C)c2cc(OC)c(OC)c(OC)c2)cc1 [Example 17] | 12.2 µM | 15.9 µM | – |
| CN(C(=O)[C@H](Cc1cc(F)cc(F)c1)NC(=O)NS(=O)(=O)N[C@@H](Cc1cc(F)cc(F)c1)C(=O)N(C)c1ccc2scnc2c1)c1ccc2scnc2c1 [Example 18] | 0.03 µM | 85.3 µM | – |
| CN(C(=O)[C@H](Cc1ccccc1)NC(=O)NS(=O)(=O)N[C@@H](Cc1ccccc1)C(=O)N(C)c1ccc2c(c1)OCO2)c1ccc2c(c1)OCO2 [Example 19] | 0.17 µM | 99.5 µM | – |
| COc1ccc(N(C)C(=O)[C@H](Cc2cc(F)cc(F)c2)NC(=O)NS(=O)(=O)N[C@@H](Cc2cc(F)cc(F)c2)C(=O)N(C)c2ccc(OC)cc2)cc1 [Example 20] | 0.01 µM | 35 µM | – |
| COc1ccc(N(C)C(=O)[C@H](Cc2ccccc2)NC(=O)CCC(=O)N[C@@H](Cc2ccccc2)C(=O)N(C)c2ccc(OC)cc2)cc1 [Example 21] | 3.25 µM | 27 µM | – |
| COc1ccc(N(C)C(=O)[C@H](Cc2ccccc2)NC(=O)CCCC(=O)N[C@@H](Cc2ccccc2)C(=O)N(C)c2ccc(OC)cc2)cc1 [Example 22] | 1.31 µM | 21.1 µM | – |
| COc1ccc(N(C)C(=O)[C@H](Cc2ccccc2)NC(=O)CCCCC(=O)N[C@@H](Cc2ccccc2)C(=O)N(C)c2ccc(OC)cc2)cc1 [Example 23] | 1.16 µM | 26.9 µM | – |
| COc1ccc(N(C)C(=O)[C@H](Cc2ccccc2)NC(=O)c2cccc(C(=O)N[C@@H](Cc3ccccc3)C(=O)N(C)c3ccc(OC)cc3)c2)cc1 [Example 24] | 0.09 µM | 4.2 µM | – |
| COc1ccc(N(C)C(=O)[C@H](Cc2ccccc2)NC(=O)c2ccc(C(=O)N[C@@H](Cc3ccccc3)C(=O)N(C)c3ccc(OC)cc3)cc2)cc1 [Example 25] | 1.13 µM | 3.7 µM | – |
| CN(C(=O)[C@H](Cc1cc(F)cc(F)c1)NC(=O)c1c(F)c(F)c(F)c(C(=O)N[C@@H](Cc2cc(F)cc(F)c2)C(=O)N(C)c2ccc3scnc3c2)c1F)c1ccc2scnc2c1 [Example 81] | – | 2.8 µM | – |
| CN(C(=O)[C@H](Cc1cc(F)cc(F)c1)NC(=O)CN1c2ccccc2N(CC(=O)N[C@@H](Cc2cc(F)cc(F)c2)C(=O)N(C)c2ccc3scnc3c2)S1(=O)=O)c1ccc2scnc2c1 [Example 118] | – | ≥ 100 µM | – |
| CCc1ccc(N(C)C(=O)[C@H](Cc2cc(F)cc(F)c2)NC(=O)NS(=O)(=O)N[C@@H](Cc2cc(F)cc(F)c2)C(=O)N(C)c2ccc(CC)cc2)cc1 [Example 173] | – | 25.5 µM | – |
